Data set [1] relates to HIV-1 constructs containing mutant IN H51Y/R263K. Nature of the data set: Single-round HIV-1 infectivity assay, IN double mutant H51Y/R263K. To be noted: Human immunodeficiency virus 1; Table 8; read-out: EC50 (nM, IN mutants) H51Y/R263K. It is filed as cell-based. Here is the method: (§1) Single-Round HIV-1 Infectivity Assay.
(§2) Human embryonyl kidney cell culture cell line 293 was acquired from the American type Culture Collection (ATCC).
(§3) […]. […] The virus-containing supernatants were then harvested, clarified by low-speed centrifugation, filtrated, and diluted for preparation in infection assays. […] After compound incorporation and activation in the cell, 100 μL of virus-stock diluted to achieve a maximum luciferase signal between 0.2 and 1.5 RLUs was added to each well and further incubated at 37° C. for 48 hrs. […] Activity was normalized to infectivity in the absence of target compounds. KaleidaGraph (Synergy Software, Reading, Pa.) was used to perform regression analysis on the data. EC50 values were determined from the fit model.
(§4) pNLNgoMIVR^−ΔEnv.LUC has been described previously (Zhao et al. 2008). The integrase codon reading frame was removed from pNLNgoMIVR^−ΔEnv LUC (between KpnI and SalI sites) and placed between the KpnI and SalI sites of pBluescript II KS+. Using that construct as the wild-type template, we prepared the following HIV-1 Integrase-resistant mutants via the QuikChange II XL (Stratagene, La Jolla, Calif.) site-directed mutagenesis protocol: H51Y, T66I, E92Q, G118R, Y143R, Q148H, Q148K, N155H, R263K, G140S+Q148H, G140A+Q148K, E138K+Q148K, and H51Y+R263K. The following sense with cognate antisense (not shown) oligonucleotides (Integrated DNA Technologies, Coralville, Iowa) were used in the mutagenesis: H51Y, 5′-[…]-3; T66I, 5′-[…]-3′; E92Q, 5′-[…]-3′; G118R, 5′-[…]-3′; E138K, 5′-[…]-3; G140A, 5′-[…]-3; G140S, 5′-[…]-3′; Y143R, 5′-[…]-3′; Q148H, 5′-[…]-3′; Q148K, 5′-[…]-3; N155H, 5′-[…]-3′; R263K 5′-[…]-3′. The double mutation G140S+Q148H was constructed by using the previously generated Q148H mutant and the appropriate oligonucleotide for the 2nd mutation, G140S. The double mutation G140A+Q148K was made by using the Q148K mutant and the appropriate oligonucleotide for the 2nd mutation, G140A. The double mutation E138K+Q148K was made by using the Q148K mutant and the appropriate oligonucleotide for the 2nd mutation, E138K. The double mutation H51Y+R263K was constructed by using the previously generated H51Y mutant and the appropriate oligonucleotides for the 2nd mutation, R263K. The DNA sequence of each construct was verified independently by DNA sequence determination. The mutant integrase coding sequences from pBluescript II KS+ were then subcloned into pNLNgoMIVR^−ΔEnv LUC (between the KpnI and SalI sites) to produce the full-length mutant HIV-1 Integrase constructs. These DNA sequences were additionally checked independently by DNA sequence determination.

The subject of data set [2] is HIV-1 constructs containing mutant IN R263K. As to the kind of experiment: Single-round HIV-1 infectivity assay, IN mutant R263K. It is filed as cell-based. Conditions: Human immunodeficiency virus 1. As for the experimental part:
as §1, §2, §3, §4

Data set [3] has as its system HIV-1 constructs containing mutant IN G118R. As to the kind of experiment: microbe, parasite or virus in culture. Type of data set: cell-based. Conditions: Human immunodeficiency virus 1. As for the experimental part:
as §1, §2, §3, §4

The test system of data set [4] is HIV-1 constructs containing wild-type IN. As to the kind of experiment: microbe, parasite or virus in culture. Type of data set: cell-based.
The test system of data set [5] is HIV-1 constructs containing mutant IN H51Y. As to the kind of experiment: Single-round HIV-1 infectivity assay, IN mutant H51Y. It is filed as cell-based. Conditions: Human immunodeficiency virus 1; Table 8; read-out: EC50 (nM, IN mutants) H51Y. As for the experimental part:
as §1, §2, §3, §4

Data set [6] has as its system HIV-1 constructs containing mutant IN T66I. As to the kind of experiment: Single-round HIV-1 infectivity assay, IN mutant T66I. It is filed as cell-based. To be noted: Human immunodeficiency virus 1; Table 8; read-out: EC50 (nM, IN mutants) T66I. Here is the method: as §1, §2, §3, §4
Data set [7] deals with HIV-1 constructs containing mutant IN E92Q. Nature of the data set: Single-round HIV-1 infectivity assay, IN mutant E92Q. It is filed as cell-based. Conditions: Human immunodeficiency virus 1; Table 8; read-out: EC50 (nM, IN mutants) E92Q. Here is the method: as §1, §2, §3, §4
Data set [8] deals with HIV-1 constructs containing mutant IN Y143R. Nature of the data set: microbe, parasite or virus in culture. Type of data set: cell-based. To be noted: Human immunodeficiency virus 1. Summed up: (§5)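 Single-round infectivity assay using luciferase-reporter pNLNgoMIVR−ΔEnv.LUC virus carrying site-directed integrase mutants, produced in 293 cells. Activity normalized to infectivity without compound; EC50 from regression fit.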

The subject of data set [9] is HIV-1 constructs containing mutant IN N155H. Nature of the data set: microbe, parasite or virus in culture. It is filed as cell-based. To be noted: Human immunodeficiency virus 1. Summed up:
as §5

The subject of data set [10] is HIV-1 constructs containing mutant IN G140S-Q148H. Nature of the data set: microbe, parasite or virus in culture. It is filed as cell-based. Conditions: Human immunodeficiency virus 1. Summed up:
as §5

The next data set can be described thus: in vitro. Type of data set: cell-based, human. Conditions: human, 50% reduction in the level of ATP in HOS cells. The procedure, abridged: (§6)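 Cells exposed to compounds over a concentration range for 48 hrs at 37° C. Viability read as cellular ATP by luciferase (ATPlite) luminescence after lysis, normalised to untreated cells; CC50 derived by regression fit.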

A further data set deals with HIV-1 integrase (Human immunodeficiency virus type 1 group M subtype B, UniProt P12497). Nature of the data set: biochemical. Type of data set: biochemical. The procedure, abridged:
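Compounds or DMSO added to 20 nM DNA and 400 nM integrase in 50 mM MOPS pH 7.2, 7.5 mM MgCl2, 14 mM 2-mercaptoethanol; 2 h at 37° C, quenched with formamide/SDS loading buffer. Products resolved on gels, imaged and quantified by densitometry.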

Data set [11] deals with human osteosarcoma (HOS) cells. Nature of the data set: in vitro. Type of data set: cell-based. Conditions: Table 3; 50% reduction in the level of ATP in HOS cells. The procedure, abridged:
as §6

Another data set concerns HIV-1 WT IN. Nature of the data set: High growth serum assays in cells (WT). It is filed as cell-based.
The mark [12] stands for this setting: Table 8, read-out: EC50 (nM, IN mutants) R263K.
[13] abbreviates: Table 8, read-out: EC50 (nM, IN mutants) G118R.
Setting [14] is: Human immunodeficiency virus 1, Table 8, WT IN, read-out: EC50 (nM, WT).
[15] abbreviates: Table 8, read-out: EC50 (nM, IN mutants) Y143R.
[16] abbreviates: Table 8, read-out: EC50 (nM, IN mutants) N155H.
Where [17] appears, read: Table 8, read-out: EC50 (nM, IN mutants) G140S/Q148H.
[18] abbreviates: Human immunodeficiency virus 1, Table 3, WT IN, read-out: EC50 (nM, WT).
The mark [19] stands for this setting: Table 4, strand transfer, read-out: IC50 (Strand Transfer).

Each structure is given as a SMILES string. Like-named read-outs stand apart in the source and are kept apart here.

For orientation: CC50 means the concentration at which the toxic effect on the cells reaches its halfway point. Take `COc1cc2c(cc1Cc1cccc(Cl)c1F)c(=O)c(C(=O)O)cn2[C@H](CO)C(C)C` [EVG, elvitegravir, reference compound]: the EC50 in data set [1] was found to be 52.6 nM; in [2] (setting [12]), 10 nM; in [3] (setting [13]), 21 nM; in [4] (setting [14]) it was 6.4 ± 0.8 nM; in data set [5], 4.5 nM; in [6] it was 66.2 nM. In addition, the EC50 was 154 nM in data set [7], 7.9 nM in data set [8] (setting [15]), 90 nM in data set [9] (setting [16]) and 5700 nM in data set [10] (setting [17]). In addition, in “in vitro” (Table 8), the CC50 is over 250000 nM.
`Cc1nnc(C(=O)NC(C)(C)c2nc(C(=O)NCc3ccc(F)cc3)c(O)c(=O)n2C)o1` [RAL, raltegravir, reference compound]: the EC50 in data set [1] is 6 ± 2.3 nM; in data set [2] (setting [12]), 5.7 nM; in [3] (setting [13]) it was 35.5 nM; in data set [4] (Human immunodeficiency virus 1, Table 6, WT IN, read-out: EC50 (nM, WT)), 4 ± 2 nM; in data set [5] it was 3.4 nM; in data set [6] it was 2.8 nM. The EC50 in data set [7] is 29.8 nM. Further, the cytotoxic concentration (CC50) in the data set “in vitro” (Table 2) was over 100000 nM; in “in vitro” (Table 6) it was over 100000 nM; in “in vitro” (Table 8) it was over 250000 nM.
For orientation: IC50 means the concentration needed to halve the response being measured. Take `O=C(NCc1ccc(F)cc1F)c1c(NCCCCc2ccccc2)c2cccnc2n(O)c1=O` [XZ383, N-(2,4-difluorobenzyl)-1-hydroxy-2-oxo-4-((4-phenylbutyl)amino)-1,2-dihydro-1,8-naphthyridine-3-carboxamide]: the EC50 in data set [4] (setting [18]) turned out to be 49.9 ± 13 nM; in [8] (Table 3, read-out: EC50 (nM, IN Mutants) Y143R) it was 39.9 ± 14.7 nM; in [9] (Table 3, read-out: EC50 (nM, IN Mutants) N155H), 116 ± 21.9 nM; in [10] (Table 3, G140S-Q148H double mutant, read-out: EC50 (nM, IN Mutants) SH), 243 ± 38.7 nM. For the same molecule, the “Si (selectivity index)” value in data set [4] (Table 3, ratio of CC50 to EC50) is recorded as 2,040. Besides, the IC50 was 12.2 ± 2 µM at HIV-1 integrase (Table 4, 3′-processing, read-out: IC50 (3^+-Processing)) and 0.28 ± 0.11 µM at HIV-1 integrase (setting [19]). Further, the CC50 in [11] is 102000 ± 8000 nM.
For `Nc1c(C(=O)NCc2ccc(F)cc2F)c(=O)n(O)c2ncccc12` [XZ384, 4-Amino-N-(2,4-difluorobenzyl)-1-hydroxy-2-oxo-1,2-dihydro-1,8-naphthyridine-3-carboxamide], the EC50 in data set [1] came to 3.2 nM; in [2] (Table 6, read-out: EC50 (nM, IN Mutants) R263K), 6.4 ± 2.3 nM; in data set [2] (setting [12]), 6.4 nM; in data set [3] (Table 6, read-out: EC50 (nM, IN Mutants) G118R), 16.1 ± 4.6 nM; in data set [3] (setting [13]), 16.1 nM; in data set [4] (Human immunodeficiency virus 1, read-out: EC50 (nM), Table 9, WT, normal 5% serum), 1.1 ± 0.66 nM. Besides, the EC50 in [4] (setting [18]) is 1.1 ± 0.66 nM; in the data set on HIV-1 WT IN (Human immunodeficiency virus 1, read-out: EC50 (nM), Table 9, 10% FBS) it was 0.8 ± 0.3 nM; in the data set with HIV-1 WT IN (Human immunodeficiency virus 1, read-out: EC50 (nM), Table 9, 15% FBS), 0.5 ± 0.05 nM; in [5], 1 nM; in data set [6] it was 0.6 nM; in [7], 3 nM. For the same molecule, the IC50 worked out at 0.019 ± 0.002 µM at HIV-1 integrase (setting [19]) and 2.5 ± 0.3 µM at HIV-1 integrase (Table 7, 3′-processing, read-out: IC50 (μM) 3′-P). In addition, the CC50 in the data set “in vitro” (Table 3), in the data set “in vitro” (Table 6) and in the data set “in vitro” (Table 8) was over 250000 nM in each case.
As to `CC(=O)OCCCCCc1cnc2c(c1)c(NCCO)c(C(=O)NCc1ccc(F)cc1F)c(=O)n2O` [XZ439, 5-(6-((2,4-Difluorobenzyl)carbamoyl)-8-hydroxy-5-((2-hydroxyethyl)amino)-7-oxo-7,8-dihydro-1,8-naphthyridin-3-yl)pentyl acetate], the EC50 stood at 15.2 nM in data set [1]; 3.6 nM in data set [2] (setting [12]); 14.5 nM in data set [3] (setting [13]); 5.3 nM in data set [4] (setting [14]); 7.4 nM in [5]; 1.2 nM in data set [6]. Besides, the EC50 in data set [7] worked out at 3.8 nM; in data set [8] (setting [15]), 4.1 ± 1 nM; in data set [9] (setting [16]), 10.3 nM; in data set [10] (setting [17]) it was 5.3 nM. Besides, the CC50 in “in vitro” (Table 8) was over 250000 nM.

The values above are taken from patent US9676771B2, “Compounds for inhibiting drug-resistant strains of HIV-1 integrase” (priority 2013, dated 2017).
